According to ChEMBL document CHEMBL5042502, “Discovery of Potent and Selective 2-(Benzylthio)pyrimidine-based DCN1-UBC12 Inhibitors for Anticardiac Fibrotic Effects” (J Med Chem, 2022):
Activity calls are given as the source filed them. No cut-off for these calls is given here.

Tests used:
DCN1-like protein 1 [1] = biological target: T1, DCN1-like protein 1 (Homo sapiens, UniProt Q96GG9); assay: Inhibition of GST-tagged DCN1 (unknown origin) using AcUBE2M1-21 incubated for 30 mins by HTRF assay
Target sequence in this assay (Q96GG9 whole entry): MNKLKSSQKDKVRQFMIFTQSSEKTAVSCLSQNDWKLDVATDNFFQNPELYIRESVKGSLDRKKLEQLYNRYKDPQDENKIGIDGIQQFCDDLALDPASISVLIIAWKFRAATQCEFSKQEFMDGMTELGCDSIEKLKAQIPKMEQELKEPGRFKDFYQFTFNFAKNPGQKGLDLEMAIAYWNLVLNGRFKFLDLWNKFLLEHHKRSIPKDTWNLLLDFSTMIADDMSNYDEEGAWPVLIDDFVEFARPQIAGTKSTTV

[2] = Cytotoxicity against Sprague-Dawley rat cardiac fibroblast by MTT assay; format: toxicity, cell-based, Fibroblast of cardiac tissue; conditions: cardiac fibroblasts
DCN1-like protein 1 [3] = biological target: T1, DCN1-like protein 1
Target sequence in this assay (Q96GG9 whole entry, looked up): as the sequence (Q96GG9 whole entry) above
Description: Binding affinity to DCN1 (unknown origin) assessed as change in entropy by MM-PBSA method

DCN1-like protein 1 [4] = biological target: T1, DCN1-like protein 1; remark: listed apart in the source
Target sequence in this assay (Q96GG9 whole entry, looked up): as the sequence (Q96GG9 whole entry) above
Description: Binding affinity to DCN1 (unknown origin) assessed as Gibbs free energy change by MM-PBSA method

DCN1-like protein 2 = DCN1-like protein 2 (Homo sapiens, UniProt Q6PH85); assay: Binding affinity to DCN2 (unknown origin) assessed as inhibitory constant
Sequence of DCN1-like protein 2 (Q6PH85 whole entry): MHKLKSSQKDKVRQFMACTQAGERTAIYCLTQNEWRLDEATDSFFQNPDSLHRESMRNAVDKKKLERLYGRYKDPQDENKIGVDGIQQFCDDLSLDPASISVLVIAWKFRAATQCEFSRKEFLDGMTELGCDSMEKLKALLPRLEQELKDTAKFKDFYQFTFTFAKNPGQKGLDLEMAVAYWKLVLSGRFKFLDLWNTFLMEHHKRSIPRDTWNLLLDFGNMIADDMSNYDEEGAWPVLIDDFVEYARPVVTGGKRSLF

DCN1-like protein 3 = biological target: T2, DCN1-like protein 3 (Homo sapiens, UniProt Q8IWE4); assay: Binding affinity to DCN3 (unknown origin) assessed as inhibitory constant
T2 sequence (Q8IWE4 whole entry): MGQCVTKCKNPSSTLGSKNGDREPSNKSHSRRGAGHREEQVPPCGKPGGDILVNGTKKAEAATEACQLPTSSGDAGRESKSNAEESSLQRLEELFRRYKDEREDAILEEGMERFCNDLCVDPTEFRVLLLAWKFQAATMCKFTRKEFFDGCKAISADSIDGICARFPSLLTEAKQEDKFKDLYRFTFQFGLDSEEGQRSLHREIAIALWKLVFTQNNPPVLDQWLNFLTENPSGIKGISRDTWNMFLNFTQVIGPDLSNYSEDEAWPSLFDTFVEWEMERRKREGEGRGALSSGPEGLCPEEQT

DCN1-like protein 5 = biological target: T3, DCN1-like protein 5 (Homo sapiens, UniProt Q9BTE7); assay: Binding affinity to DCN5 (unknown origin) assessed as inhibitory constant
T3 sequence (Q9BTE7 whole entry): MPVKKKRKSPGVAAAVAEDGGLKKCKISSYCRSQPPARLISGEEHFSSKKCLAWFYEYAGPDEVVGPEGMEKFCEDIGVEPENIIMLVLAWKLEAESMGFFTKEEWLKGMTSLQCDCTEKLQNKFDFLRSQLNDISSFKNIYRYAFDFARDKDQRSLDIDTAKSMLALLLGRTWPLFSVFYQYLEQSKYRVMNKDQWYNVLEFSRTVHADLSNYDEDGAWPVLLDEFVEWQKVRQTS

Cardiac fibroblast = assay: Inhibition of DCN1 in Sprague-Dawley rat cardiac fibroblast assessed as suppression in DCN1-UBC12 interaction by measuring reduction in UBC12 level at 10 uM incubated for 5 hrs co-incubated with DCN1 antibody by co-immunoprecipitation pull down assay; format: cell-based
[5] = test system: Fibroblast of cardiac tissue; assay: Antifibrotic effect in SD rat cardiac fibroblast assessed as reduction in Ang II-induced activation of Nrf2 signaling pathway preincubated for 2 hrs followed by Ang II-stimulation and further incubated for 24 hrs by western blot analysis (reference value: 43 %); format: functional; conditions: time 26.0 hrs
[6] = test system: Fibroblast of cardiac tissue; assay: Antifibrotic effect in SD rat cardiac fibroblast assessed as reduction in Ang II-induced collagen I upregulation preincubated for 2 hrs followed by Ang II-stimulation and further incubated for 24 hrs by western blot analysis (reference value: 71 %); format: functional; conditions: time 26.0 hrs

Structure (SMILES) | IC50 (DCN1-like protein 1 [1]) | also measured
C=CCSc1nc(Sc2nccs2)c(C#N)c(-c2cc(OC)c(OC)c(OC)c2)n1 | 36.9 nM | 
COc1cc(-c2nc(SCc3ccccc3)nc(NC(C)(C)N3CCOCC3)c2C#N)cc(OC)c1OC | > 10000 nM | 
Cc1ccc(CSc2nc(Sc3nccs3)c(C#N)c(-c3ccc(Cl)cc3)n2)cc1 | 65.9 nM | 
COc1ccc(-c2nc(SCc3ccc(C)cc3)nc(Sc3nccs3)c2C#N)cc1 | 21.2 nM | 
COc1cc(-c2nc(SCc3cccc(C(F)(F)F)c3)nc(Sc3nccs3)c2C#N)cc(OC)c1OC | 29.3 nM | 
COc1cc(-c2nc(SCC(=O)NC(=O)Nc3ccccc3)nc(Sc3nccs3)c2C#N)cc(OC)c1OC | 6180 nM | 
Cc1ccc(CSc2nc(Sc3nccs3)c(C#N)c(-c3ccccc3C)n2)cc1 | 463 nM | 
COc1cc(-c2nc(SCc3ccccc3)nc(NCc3nccs3)c2C#N)cc(OC)c1OC | > 10000 nM | 
COc1cc(-c2nc(SCc3ccccc3)nc(Sc3nccs3)c2C#N)cc(OC)c1OC | 28.2 nM | 
COc1cc(-c2nc(SCc3ccccc3)nc(Sc3nc(C)cs3)c2C#N)cc(OC)c1OC | 41.1 nM | 
Cc1ccc(CSc2nc(Sc3nccs3)c(C#N)c(-c3ccc(C)cc3)n2)cc1 | 20.9 nM | 
COc1cc(-c2nc(SCc3ccccc3C)nc(Sc3nccs3)c2C#N)cc(OC)c1OC | 890 nM | 
Cc1ccc(CSc2nc(Sc3nccs3)c(C#N)c(-c3c[nH]c4ccccc34)n2)cc1 | > 10000 nM | 
Cc1ccc(CSc2nc(Sc3nccs3)c(C#N)c(-c3ccc(Oc4ccccc4)cc3)n2)cc1 | 1020 nM | 
COc1cc(-c2nc(SCc3cccc(C)c3)nc(Sc3nccs3)c2C#N)cc(OC)c1OC | 5.48 nM | IC50 [2]: 15600 nM
COc1cc(-c2nc(SCc3ccc(C(F)(F)F)cc3)nc(Sc3nccs3)c2C#N)cc(OC)c1OC | 100 nM | 
COc1ccc(Nc2nc(SCc3ccccc3)nc(-c3cc(OC)c(OC)c(OC)c3)c2C#N)cc1 | > 10000 nM | 

Structure (SMILES) | IC50 (DCN1-like protein 1 [1]) | also measured
COc1cc(-c2nc(SCCc3ccccc3)nc(Sc3nccs3)c2C#N)cc(OC)c1OC | 2570 nM | 
COc1cc(-c2nc(SCC3CCCCC3)nc(Sc3nccs3)c2C#N)cc(OC)c1OC | 611 nM | 
COc1cc(-c2nc(SCC(=O)Nc3ccccc3)nc(Sc3nccs3)c2C#N)cc(OC)c1OC | 8010 nM | 
C#CCSc1nc(Sc2nccs2)c(C#N)c(-c2ccc(C)cc2)n1 | 18.3 nM | IC50 [2]: 12600 nM; Ki (DCN1-like protein 2): 66200 nM; Ki (DCN1-like protein 3): 592000 nM; Ki (DCN1-like protein 5): 2140 nM; inhibition (Cardiac fibroblast): Dose-Dependent Effect
COc1cc(-c2nc(SCc3ccc4ccccc4c3)nc(Sc3nccs3)c2C#N)cc(OC)c1OC | 36.4 nM | IC50 [2]: 22900 nM
Cc1ccc(CSc2nc(Sc3nccs3)c(C#N)c(-c3cccc(C)c3)n2)cc1 | 1690 nM | 
COc1ccc(-c2nc(SCc3ccc(C)cc3)nc(Sc3nccs3)c2C#N)cc1OC | 17.1 nM | 
COc1cc(-c2nc(SCc3ccoc3C(F)(F)F)nc(Sc3nccs3)c2C#N)cc(OC)c1OC | 450 nM | 
Cc1ccc(CSc2nc(Sc3nccs3)c(C#N)c(-c3ccc(Br)cc3)n2)cc1 | 27.9 nM | 
CCCSc1nc(Sc2nccs2)c(C#N)c(-c2cc(OC)c(OC)c(OC)c2)n1 | 258 nM | 
Cc1ccc(CSc2nc(Sc3nccs3)c(C#N)c(-c3cccs3)n2)cc1 | > 10000 nM | 
COc1cc(-c2nc(SCc3ccccc3)nc(Sc3nc(C)c(C)s3)c2C#N)cc(OC)c1OC | > 10000 nM | 
COc1cc(-c2nc(SCc3ccccc3)nc(Nc3ccc(O)c(Cl)c3)c2C#N)cc(OC)c1OC | > 10000 nM | 
Cc1ccc(CSc2nc(Sc3nccs3)c(C#N)c(-c3ccccc3)n2)cc1 | 2790 nM | 
COc1cc(-c2nc(SCc3c(C)noc3C)nc(Sc3nccs3)c2C#N)cc(OC)c1OC | 412 nM | 
COc1cc(-c2nc(SCc3nc4ccccc4[nH]3)nc(Sc3nccs3)c2C#N)cc(OC)c1OC | 814 nM | 

Now from value to compound, other results behind:

IC50 (DCN1-like protein 1 [1]) | Structure (SMILES) | also measured
25.3 nM | COc1cc(-c2nc(SCc3ccc(Cl)cc3)nc(Sc3nnnn3CCN(C)C)c2C#N)cc(OC)c1OC | 
9.37 nM | COc1cc(-c2nc(SCc3ccc(C)cc3)nc(Sc3nnnn3CCN(C)C)c2C#N)cc(OC)c1OC | IC50 [2]: 26000 nM
4130 nM | COc1ccc(CNc2nc(Sc3nnnn3C)cc(-c3cc(OC)c(OC)c(OC)c3)n2)cc1 | 
24.7 nM | COc1cc(-c2nc(SCc3ccc(Cl)cc3)nc(Sc3nccs3)c2C#N)cc(OC)c1OC | 
42.2 nM | COc1cc(-c2nc(SCc3ccc(C)cc3)nc(Sc3nccs3)c2C#N)cc(OC)c1OC | IC50 [2]: 6150 nM
13.4 nM | COc1ccc(CSc2nc(Sc3nnnn3CCN(C)C)c(C#N)c(-c3cc(OC)c(OC)c(OC)c3)n2)cc1 | 
1220 nM | COc1cc(-c2nc(SCc3ccc(C(C)(C)C)cc3)nc(Sc3nnnn3C)c2C#N)cc(OC)c1OC | 
36.4 nM | COc1cc(-c2nc(SCc3ccccc3)nc(Sc3nnnn3C)c2C#N)cc(OC)c1OC | 
60.5 nM | COc1cc(-c2nc(SCc3ccc(C(F)(F)F)cc3)nc(Sc3nnnn3CCN(C)C)c2C#N)cc(OC)c1OC | 
12.2 nM | COc1cc(-c2nc(SCc3cccc(C(F)(F)F)c3)nc(Sc3nnnn3CCN(C)C)c2C#N)cc(OC)c1OC | 
> 10000 nM | COc1cc(-c2nc(SCc3ccccc3)nc(Nc3ccc(Cl)cc3)c2C#N)cc(OC)c1OC | 
0.25 nM | C#CCSc1nc(Sc2nnnn2C)c(C#N)c(-c2cc(OC)c(OC)c(OC)c2)n1 | -TdeltaS (DCN1-like protein 1 [3]): 10.8 kcal/mol; deltaG (DCN1-like protein 1 [4]): -10.3 kcal/mol
11.5 nM | COc1cc(-c2nc(SCc3ccc(C(C)(C)C)cc3)nc(Sc3nccs3)c2C#N)cc(OC)c1OC | 
12.4 nM | COc1cc(-c2nc(SCc3cccc(C)c3)nc(Sc3nnnn3CCN(C)C)c2C#N)cc(OC)c1OC | 
29.1 nM | COc1cc(-c2nc(SCc3ccc(C(F)(F)F)cc3)nc(Sc3nnnn3C)c2C#N)cc(OC)c1OC | 
28.1 nM | COc1cc(-c2nc(SCc3ccccc3)nc(Sc3nnnn3CCN(C)C)c2C#N)cc(OC)c1OC | 
2570 nM | COc1ccc(CSc2nc(Sc3nccs3)c(C#N)c(-c3cc(OC)c(OC)c(OC)c3)n2)cc1 | 
2390 nM | COc1cc(-c2nc(SCc3ccccc3)nc(Nc3cccc(Cl)c3)c2C#N)cc(OC)c1OC | 
6.15 nM | COc1cc(-c2nc(SCc3ccc4ccccc4c3)nc(Sc3nnnn3C)c2C#N)cc(OC)c1OC | IC50 [2]: 18900 nM
11.1 nM | COc1cc(-c2nc(SCc3cccc(C)c3)nc(Sc3nnnn3C)c2C#N)cc(OC)c1OC | 
9620 nM | COc1cc(-c2cc(Sc3nnnn3C)nc(SCc3ccc(Cl)cc3)n2)cc(OC)c1OC | inhibition [5]: inactive; -TdeltaS (DCN1-like protein 1 [3]): 10.6 kcal/mol; deltaG (DCN1-like protein 1 [4]): -7.12 kcal/mol; inhibition [6]: inactive
31.2 nM | COc1ccc(CSc2nc(Sc3nnnn3C)c(C#N)c(-c3cc(OC)c(OC)c(OC)c3)n2)cc1 | 
2.25 nM | COc1cc(-c2nc(SCc3ccc4ccccc4c3)nc(Sc3nnnn3CCN(C)C)c2C#N)cc(OC)c1OC | IC50 [2]: 25800 nM
2.86 nM | COc1cc(-c2nc(SCc3ccc(C)cc3)nc(Sc3nnnn3C)c2C#N)cc(OC)c1OC | IC50 [2]: 9970 nM
653 nM | COc1cc(-c2nc(SCc3ccncc3)nc(Sc3nccs3)c2C#N)cc(OC)c1OC | 
25.8 nM | COc1cc(-c2nc(SCc3cccc(C(F)(F)F)c3)nc(Sc3nnnn3C)c2C#N)cc(OC)c1OC | 
5.36 nM | COC(=O)c1ccc(CSc2nc(Sc3nccs3)c(C#N)c(-c3cc(OC)c(OC)c(OC)c3)n2)cc1 | 
